Source: US11028054B2, “1, 4, 6-trisubstituted-2-alkyl-1H-benzo[d]imidazole derivatives as dihydroorotate oxygenase inhibitors” (Merck Patent GmbH, priority 2017, dated 2021)

Target: DHODH (Homo sapiens (Human), UniProt Q02127)
Experiment: Measurement of DHODH inhibitory enzyme activity (coupled DCIP reduction assay)
Assay type: biochemical
Text: Measurement of DHODH Inhibitory Enzyme Activity (In Vitro Assays)
The DHODH activity assay is a coupled enzyme assay in which oxidation of DHO and subsequent reduction of ubiquinone are stoichiometrically equivalent to the reduction of DCIP ([…]). The reduction of DCIP is accompanied by a loss of absorbance at 610 nm.
Reagents used: L-Dihydroorotic acid, Sigma, D7128, 2,6-Dichloroindophenol sodium salt hydrate, sigma, D1878 Dimethyl sulfoxide (DMSO), spectroscopic grade purchased from Spectrochem, cat no. 0704209, B. no.—3183650 Decylubiquinone, Sigma, D7911.
Preparation of Solutions/Reagents:
Buffer Preparation: 50 mM tris HCl, 150 mM KCl, and pH 8.0, 0.8% triton.
L-Dihydroorotic acid stock solution of 20 mM in buffer.
2, 6-Dichloroindophenol Sodium salt hydrate stock solution of 20 mM in buffer.
Decylubiquinone stock solution of 20 mM in buffer.
5 μL of Dimethyl sulfoxide or a compound of formula (I) in DMSO solution was added to the wells of a 96 well plate. Compounds of formula (I) were measured at 10 μM.
Protein along with buffer was added, so that the total volume including the DMSO was 87 μL. Compound and protein were incubated for half an hour at room temperature after mixing. 5 μL of 20 mM solution of L-Dihydroorotic acid, 5 μL of 2 mM solution of Decylubiquinone and 3 μL of 2 mM solution of 2, 6-Dichloroindophenol sodium salt hydrate were added to the above solution (total assay volume 100 μL). The mixture was stirred for 2 min and absorbance was recorded at every 10 min at 610 nanometers.
Percent inhibition is calculated as follows 100*{(Abs610 for reaction containing compound)−(Abs610 for positive control) (Abs610 for no enzyme reaction)−(Abs610 for positive control) Reaction containing compound has compound, buffer, enzyme and substrates Positive control contains DMSO, buffer, enzyme and substrates No Enzyme reaction contains DMSO, buffer and substrates IC50 determination: A 2 mM DMSO stock solution of the selected 1, 4, 6-trisubstituted-2-alkyl-1H-benzo[d]imidazole derivatives of formula (I) of the present invention to be examined was prepared. Subsequent ⅓rd dilutions were made as follows:
5 μL of each stock of compound of formula (I) (solution indicated in column 4 of table) was used for each 100 μL assay. Therefore, 5 μL of the 2 mM stock provided 100 μL of 100 μM solution of compound of formula (I), when made up with buffer, protein and substrate. See also: Ulrich et al. (2001) Eur. J. Biochem. 268, 1861-1868.

DHODH, sequence (Q02127 whole entry): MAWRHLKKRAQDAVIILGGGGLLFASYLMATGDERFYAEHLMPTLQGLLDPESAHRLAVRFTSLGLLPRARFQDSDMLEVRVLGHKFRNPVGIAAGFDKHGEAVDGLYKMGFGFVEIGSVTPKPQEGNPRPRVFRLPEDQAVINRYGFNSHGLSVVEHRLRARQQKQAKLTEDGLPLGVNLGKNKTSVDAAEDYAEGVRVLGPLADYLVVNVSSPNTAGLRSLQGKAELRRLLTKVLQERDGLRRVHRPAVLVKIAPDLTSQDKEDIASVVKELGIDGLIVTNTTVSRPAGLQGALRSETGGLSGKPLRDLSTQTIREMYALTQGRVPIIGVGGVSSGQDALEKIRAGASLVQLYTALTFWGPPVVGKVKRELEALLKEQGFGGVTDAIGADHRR

Row | IC50 [nM] | Structure (SMILES)
1 | 1 to 9.9 | Cc1nc2c(C(=O)O)cc(-c3ccc(-c4ccccc4CN4CC[C@@H](F)C4)cc3)cc2[nH]1 [Example 117, (R)-6-(2'-((3-fluoropyrrolidin-1-yl)methyl)-[1,1'-biphenyl]-4-yl)-2-methyl-1H-benzo[d]imidazole-4-carboxylic acid.2,2,2-trifluoroacetic acid]
2 | 10 to 99 | Cc1nc2c(C(=O)O)cc(-c3ccc(-c4c(C)cccc4C)cc3)cc2[nH]1 [Example 145, 6-(2',6'-dimethyl-[1,1'-biphenyl]-4-yl)-2-methyl-1H-benzo[d]imidazole-4-carboxylic acid]
3 | 1 to 9.9 | Cc1nc2c(C(=O)O)cc(-c3c(F)c(F)c(-c4cccc(CN5CCCCC5)c4)c(F)c3F)cc2[nH]1 [Example 56, 2-methyl-6-(2,3,5,6-tetrafluoro-3'-(piperidin-1-ylmethyl)-[1,1'-biphenyl]-4-yl)-1H-benzo[d]imidazole-4-carboxylic acid.2,2,2-trifluoroacetic acid]
4 | 1 to 9.9 | Cc1nc2c(C(=O)O)cc(-c3ccc(-c4c(F)cccc4CN4CCCC4)cc3)cc2[nH]1 [Example 150, 6-(2'-fluoro-6'-(pyrrolidin-1-ylmethyl)-[1,1'-biphenyl]-4-yl)-2-methyl-1H-benzo[d]imidazole-4-carboxylic acid.2,2,2-trifluoroacetic acid]
5 | 10 to 99 | Cc1nc2c(C(=O)O)cc(-c3ccc(-c4ccccc4OCc4ccccc4)cc3)cc2[nH]1 [Example 17, 6-(2'-(benzyloxy)-[1,1'-biphenyl]-4-yl)-2-methyl-1H-benzo[d]imidazole-4-carboxylic acid]
6 | 10 to 99 | Cc1nc2c(C(=O)O)cc(-c3c(F)c(F)c(-c4cccc(CNC(C)C)c4)c(F)c3F)cc2[nH]1 [Example 59, 2-methyl-6-(2,3,5,6-tetrafluoro-3'-((isopropylamino)methyl)-[1,1'-biphenyl]-4-yl)-1H-benzo[d]imidazole-4-carboxylic acid.2,2,2-trifluoroacetic acid]
7 | 1 to 9.9 | Cc1nc2c(C(=O)O)cc(-c3c(F)c(F)c(-n4c(C)ccc4C)c(F)c3F)cc2[nH]1 [Example 67, 6-(4-(2,5-dimethyl-1H-pyrrol-1-yl)-2,3,5,6-tetrafluorophenyl)-2-methyl-1H-benzo[d]imidazole-4-carboxylic acid]
8 | > 100 | Cc1nc2c(C(=O)O)cc(-c3ccc(-c4cccc(F)c4F)cc3)cc2[nH]1 [Example 4, 6-(2',3'-difluoro-[1,1'-biphenyl]-4-yl)-2-methyl-1H-benzo[d]imidazole-4-carboxylic acid]
9 | 10 to 99 | Cc1nc2c(C(=O)O)cc(-c3ccc(-c4cccc(CNC(C)(C)C)c4)cc3)cc2[nH]1 [Example 39, 6-(3'-((tert-butylamino)methyl)-[1,1'-biphenyl]-4-yl)-2-methyl-1H-benzo[d]imidazole-4-carboxylic acid.2,2,2-trifluoroacetic acid]
10 | 10 to 99 | Cc1nc2c(C(=O)O)cc(-c3ccc(-c4cccc(CN5CCS(=O)(=O)CC5)c4)cc3)cc2[nH]1 [Example 36, 6-(3'-((1,1-dioxidothiomorpholino)methyl)-[1,1'-biphenyl]-4-yl)-2-methyl-1H-benzo[d]imidazole-4-carboxylic acid.2,2,2-trifluoroacetic acid]
11 | 10 to 99 | Cc1nc2c(C(=O)O)cc(-c3ccc(-c4cccc(O)c4)cc3)cc2[nH]1 [Example 16, 6-(3'-hydroxy-[1,1'-biphenyl]-4-yl)-2-methyl-1H-benzo[d]imidazole-4-carboxylic acid]
12 | 1 to 9.9 | Cc1nc2c(C(=O)O)cc(-c3c(F)c(F)c(-c4cccc(CNC5CC5)c4)c(F)c3F)cc2[nH]1 [Example 60, 6-(3'-((cyclopropylamino)methyl)-2,3,5,6-tetrafluoro-[1,1'-biphenyl]-4-yl)-2-methyl-1H-benzo[d]imidazole-4-carboxylic acid.2,2,2-trifluoroacetic acid]
13 | 10 to 99 | Cc1nc2c(C(=O)O)cc(-c3ccc(-c4ccc(O)cc4)cc3)cc2[nH]1 [Example 20, 6-(4'-hydroxy-[1,1'-biphenyl]-4-yl)-2-methyl-1H-benzo[d]imidazole-4-carboxylic acid]
14 | 10 to 99 | Cc1nc2c(C(=O)O)cc(-c3ccc(-c4ccccc4CN4CCOCC4)cc3)cc2[nH]1 [Example 45, 2-methyl-6-(2'-(morpholinomethyl)-[1,1'-biphenyl]-4-yl)-1H-benzo[d]imidazole-4-carboxylic acid.2,2,2-trifluoroacetic acid]
15 | 10 to 99 | COc1cccc(-c2ccc(-c3cc(C(=O)O)c4nc(C)[nH]c4c3)cc2)c1F [Example 21, 6-(2'-fluoro-3'-methoxy-[1,1'-biphenyl]-4-yl)-2-methyl-1H-benzo[d]imidazole-4-carboxylic acid]
16 | 1 to 9.9 | Cc1nc2c(C(=O)O)cc(-c3c(F)c(F)c(-c4ccc(CN5CCCC(F)(F)C5)cc4)c(F)c3F)cc2[nH]1 [Example 64, 6-(4'-((3,3-difluoropiperidin-1-yl)methyl)-2,3,5,6-tetrafluoro-[1,1'-biphenyl]-4-yl)-2-methyl-1H-benzo[d]imidazole-4-carboxylic acid.2,2,2-trifluoroacetic acid]
17 | 1 to 9.9 | Cc1nc2c(C(=O)O)cc(-c3c(F)c(F)c(-c4ccccc4)c(F)c3F)cc2[nH]1 [Example 52, 2-methyl-6-(2,3,5,6-tetrafluoro-[1,1'-biphenyl]-4-yl)-1H-benzo[d]imidazole-4-carboxylic acid]
18 | 10 to 99 | Cc1nc2c(C(=O)O)cc(-c3c(F)c(F)c(-c4ccc(CN5CCCC5)cc4)c(F)c3F)cc2[nH]1 [Example 62, 2-methyl-6-(2,3,5,6-tetrafluoro-4'-(pyrrolidin-1-ylmethyl)-[1,1'-biphenyl]-4-yl)-1H-benzo[d]imidazole-4-carboxylic acid.2,2,2-trifluoroacetic acid]
19 | 1 to 9.9 | Cc1nc2c(C(=O)O)cc(-c3c(F)c(F)c(-c4ccc(CN5CCCCC5)cc4)c(F)c3F)cc2[nH]1 [Example 61, 2-methyl-6-(2,3,5,6-tetrafluoro-4'-(piperidin-1-ylmethyl)-[1,1'-biphenyl]-4-yl)-1H-benzo[d]imidazole-4-carboxylic acid.2,2,2-trifluoroacetic acid]
20 | 1 to 9.9 | Cc1nc2c(C(=O)O)cc(-c3c(F)c(F)c(-c4cccc(CO)c4)c(F)c3F)cc2[nH]1 [Example 57, 2-methyl-6-(2,3,5,6-tetrafluoro-3'-(hydroxymethyl)-[1,1'-biphenyl]-4-yl)-1H-benzo[d]imidazole-4-carboxylic acid.2,2,2-trifluoroacetic acid]
21 | 10 to 99 | Cc1nc2c(C(=O)O)cc(-c3ccc(-c4ccccc4O)cc3)cc2[nH]1 [Example 23, 6-(2'-hydroxy-[1,1'-biphenyl]-4-yl)-2-methyl-1H-benzo[d]imidazole-4-carboxylic acid]
22 | 1 to 9.9 | Cc1nc2c(C(=O)O)cc(-c3ccc(-c4ccccc4CN4CCCC4)cc3)cc2[nH]1 [Example 46, 2-methyl-6-(2'-(pyrrolidin-1-ylmethyl)-[1,1'-biphenyl]-4-yl)-1H-benzo[d]imidazole-4-carboxylic acid.2,2,2-trifluoroacetic acid]
23 | 10 to 99 | Cc1nc2c(C(=O)O)cc(-c3ccc(-c4cccc(CO)c4)cc3)cc2[nH]1 [Example 90, 6-(3'-(hydroxymethyl)-[1,1'-biphenyl]-4-yl)-2-methyl-1H-benzo[d]imidazole-4-carboxylic acid]
24 | 1 to 9.9 | Cc1nc2c(C(=O)O)cc(-c3c(F)c(F)c(-c4ccccc4CN4CCCCC4)c(F)c3F)cc2[nH]1 [Example 53, 2-methyl-6-(2,3,5,6-tetrafluoro-2'-(piperidin-1-ylmethyl)-[1,1'-biphenyl]-4-yl)-1H-benzo[d]imidazole-4-carboxylic acid.2,2,2-trifluoroacetic acid]
25 | 10 to 99 | Cc1nc2c(C(=O)O)cc(-c3ccc(-c4cccc(OCc5ccccc5)c4)cc3)cc2[nH]1 [Example 15, 6-(3'-(benzyloxy)-[1,1'-biphenyl]-4-yl)-2-methyl-1H-benzo[d]imidazole-4-carboxylic acid]
26 | 1 to 9.9 | Cc1nc2c(C(=O)O)cc(-c3c(F)c(F)c(-c4ccc(CN5CCS(=O)(=O)CC5)cc4)c(F)c3F)cc2[nH]1 [Example 65, 6-(4'-((1,1-dioxidothiomorpholino)methyl)-2,3,5,6-tetrafluoro-[1,1'-biphenyl]-4-yl)-2-methyl-1H-benzo[d]imidazole-4-carboxylic acid.2,2,2-trifluoroacetic acid]
27 | 10 to 99 | Cc1nc2c(C(=O)O)cc(-c3ccc(-c4ccccc4CN4CCCCC4)cc3)cc2[nH]1 [Example 42, 2-methyl-6-(2'-(piperidin-1-ylmethyl)-[1,1'-biphenyl]-4-yl)-1H-benzo[d]imidazole-4-carboxylic acid.2,2,2-trifluoroacetic acid]
